Data as given in patent publication US10874743B2, “IRAK degraders and uses thereof” (Kymera Therapeutics, Inc., priority 2017, dated 2020).

Biological target: T1, IRAK4 (Homo sapiens, UniProt Q9NWZ3)
T1 sequence (Q9NWZ3 1-460): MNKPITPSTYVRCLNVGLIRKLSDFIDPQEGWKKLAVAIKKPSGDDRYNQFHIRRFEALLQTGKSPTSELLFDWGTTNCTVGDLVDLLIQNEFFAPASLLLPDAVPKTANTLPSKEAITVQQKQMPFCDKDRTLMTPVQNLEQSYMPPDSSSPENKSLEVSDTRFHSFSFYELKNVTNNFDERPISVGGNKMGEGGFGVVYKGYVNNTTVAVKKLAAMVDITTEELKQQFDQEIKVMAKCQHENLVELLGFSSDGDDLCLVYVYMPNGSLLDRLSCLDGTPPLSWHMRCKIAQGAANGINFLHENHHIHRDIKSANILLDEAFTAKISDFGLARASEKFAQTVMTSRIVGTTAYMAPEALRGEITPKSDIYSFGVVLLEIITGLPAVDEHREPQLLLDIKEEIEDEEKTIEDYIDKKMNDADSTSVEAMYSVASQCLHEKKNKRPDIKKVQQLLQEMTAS
Test: OCI-LY-10 degradation assay (western blot, % IRAK4 degraded after 4 hours)
Format: cell-based
Parameters: endogenous in cells; host or cells: OCI-LY10
Conditions: OCI-LY10 cells, 4 hours; for OCI-LY10 % IRAK4 Degradation (0.01 uM): 0.01 uM compound; for OCI-LY10 % IRAK4 Degradation (0.1 uM): 0.1 uM compound; for OCI-LY10 % IRAK4 Degradation (1 uM): 1 uM compound
Outline: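 IRAK4 loss after 4 h at 37° C was scored A (>50%), B (>20-50%) or C (<20%) from infrared western blots of RIPA lysates, 20-25 μg protein per lane. Compound was applied at 0.003-10 μM final to OCI-LY10 cells cultured in RPMI-1640 with 20% FBS and 55 μM 2-ME.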

SMILES | OCI-LY10 % IRAK4 Degradation (0.01 uM) | OCI-LY10 % IRAK4 Degradation (0.1 uM) | OCI-LY10 % IRAK4 Degradation (1 uM)
NC(=O)c1nn(-c2ccc(C(=O)NCCOCCOCCCc3cccc4c3C(=O)N(C3CCC(=O)NC3=O)C4=O)cc2)cc1NC(=O)c1coc(-c2ccnc(NCC(F)(F)F)c2)n1 (stereo not drawn) [I-233] | C (<20% degradation) | A (>50% degradation) | A (>50% degradation)
NC(=O)c1nn(-c2ccc(C(=O)NCCOCCCc3cccc4c3C(=O)N(C3CCC(=O)NC3=O)C4=O)cc2)cc1NC(=O)c1coc(-c2ccnc(NCC(F)(F)F)c2)n1 (stereo not drawn) [I-234] | C (<20% degradation) | B (>20-50% degradation) | B (>20-50% degradation)
NC(=O)c1nn(-c2ccc(C(=O)NCCOCCOCCOCCOCC#Cc3cccc4c3C(=O)N(C3CCC(=O)NC3=O)C4=O)cc2)cc1NC(=O)c1coc(-c2ccnc(NCC(F)(F)F)c2)n1 (stereo not drawn) [I-236] | C (<20% degradation) | B (>20-50% degradation) | A (>50% degradation)
NC(=O)c1nn(-c2ccc(C(=O)NCCOCCOCCOCCCc3cccc4c3CN(C3CCC(=O)NC3=O)C4=O)cc2)cc1NC(=O)c1coc(-c2ccnc(NCC3CC3)c2)n1 (stereo not drawn) [I-238] | C (<20% degradation) | B (>20-50% degradation) | A (>50% degradation)
NC(=O)c1nn(CCOCCOCCOCCNc2cccc3c2C(=O)N(C2CCC(=O)NC2=O)C3=O)cc1NC(=O)c1coc(-c2ccnc(NCC3CC3)c2)n1 (stereo not drawn) [I-239] | C (<20% degradation) | C (<20% degradation) | C (<20% degradation)
O=C1CCC(N2C(=O)c3cccc(CCCOCCNC(=O)c4ccc(-n5cc(NC(=O)c6coc(-c7ccnc(NCC8CC8)c7)n6)c(C(F)F)n5)cc4)c3C2=O)C(=O)N1 (stereo not drawn) [I-243] | C (<20% degradation) | C (<20% degradation) | C (<20% degradation)
O=C1CCC(N2C(=O)c3cccc(CCCOCCOCCNC(=O)c4ccc(-n5cc(NC(=O)c6coc(-c7ccnc(NCC8CC8)c7)n6)c(C(F)F)n5)cc4)c3C2=O)C(=O)N1 (stereo not drawn) [I-244] | C (<20% degradation) | B (>20-50% degradation) | B (>20-50% degradation)
O=C1CCC(N2C(=O)c3cccc(NCCCCCNCCNC(=O)c4ccc(-n5cc(NC(=O)c6coc(-c7ccnc(NCC8CC8)c7)n6)c(C(F)F)n5)cc4)c3C2=O)C(=O)N1 (stereo not drawn) [I-245] | C (<20% degradation) | B (>20-50% degradation) | A (>50% degradation)
O=C1CCC(N2C(=O)c3cccc(NCCOCCOCCNC(=O)c4ccc(-n5cc(NC(=O)c6coc(-c7ccnc(NCC8CC8)c7)n6)c(C(F)F)n5)cc4)c3C2=O)C(=O)N1 (stereo not drawn) [I-246] | C (<20% degradation) | A (>50% degradation) | A (>50% degradation)
O=C1CCC(N2C(=O)c3cccc(NCCOCCN4CCO[C@@H](CNC(=O)c5ccc(-n6cc(NC(=O)c7coc(-c8ccnc(NCC9CC9)c8)n7)c(C(F)F)n6)cc5)C4)c3C2=O)C(=O)N1 (stereo partly drawn) [I-247] | B (>20-50% degradation) | A (>50% degradation) | A (>50% degradation)
Cn1c(=O)n(C2CCC(=O)NC2=O)c2ccc(CCCOCCOCCNC(=O)c3ccc(-n4cc(NC(=O)c5coc(-c6ccnc(NCC(F)(F)F)c6)n5)c(C(N)=O)n4)cc3)cc21 (stereo not drawn) [I-248] | B (>20-50% degradation) | A (>50% degradation) | A (>50% degradation)
Cn1c(=O)n(C2CCC(=O)NC2=O)c2cccc(CCCOCCOCCNC(=O)c3ccc(-n4cc(NC(=O)c5coc(-c6ccnc(NCC(F)(F)F)c6)n5)c(C(N)=O)n4)cc3)c21 (stereo not drawn) [I-249] | C (<20% degradation) | A (>50% degradation) | A (>50% degradation)
O=C1CCC(N2C(=O)c3cccc(NCCOCCN4CCO[C@H](CNC(=O)c5ccc(-n6cc(NC(=O)c7coc(-c8ccnc(NCC9CC9)c8)n7)c(C(F)F)n6)cc5)C4)c3C2=O)C(=O)N1 (stereo partly drawn) [I-250] | C (<20% degradation) | A (>50% degradation) | A (>50% degradation)
O=C1CCC(N2C(=O)c3cccc(NCCOCCOCCOCCOCCn4cc(NC(=O)c5coc(-c6ccnc(NCC7CC7)c6)n5)c(C(F)F)n4)c3C2=O)C(=O)N1 (stereo not drawn) [I-254] | C (<20% degradation) | C (<20% degradation) | B (>20-50% degradation)
O=C1CCC(n2c(=O)oc3c(CCCOCCOCCNC(=O)c4ccc(-n5cc(NC(=O)c6coc(-c7ccnc(NCC(F)(F)F)c7)n6)c(C(F)F)n5)cc4)cccc32)C(=O)N1 (stereo not drawn) [I-256] | B (>20-50% degradation) | A (>50% degradation) | A (>50% degradation)
O=C1CCC(N2C(=O)c3cccc(CCOCCN4CCC(n5cc(NC(=O)c6coc(-c7ccnc(NCC8CC8)c7)n6)c(C(F)F)n5)CC4)c3C2=O)C(=O)N1 (stereo not drawn) [I-257] | C (<20% degradation) | C (<20% degradation) | C (<20% degradation)
O=C1CCC(N2C(=O)c3cccc(CCCN4CCC(n5cc(NC(=O)c6coc(-c7ccnc(NCC8CC8)c7)n6)c(C(F)F)n5)CC4)c3C2=O)C(=O)N1 (stereo not drawn) [I-259] | C (<20% degradation) | C (<20% degradation) | C (<20% degradation)
O=C1CCC(N2C(=O)c3ccc(CCCNC(=O)c4ccc(-n5cc(NC(=O)c6coc(-c7ccncc7)n6)c(C(F)F)n5)cc4)cc3C2=O)C(=O)N1 (stereo not drawn) [I-260] | C (<20% degradation) | C (<20% degradation) | C (<20% degradation)
O=C1CCC(N2C(=O)c3ccc(CCCCCN4CCC(n5cc(NC(=O)c6coc(-c7ccnc(NCC8CC8)c7)n6)c(C(F)F)n5)CC4)cc3C2=O)C(=O)N1 (stereo not drawn) [I-263] | C (<20% degradation) | C (<20% degradation) | C (<20% degradation)
O=C1CCC(N2C(=O)c3ccc(CCCN4CCC(n5cc(NC(=O)c6coc(-c7ccnc(NCC8CC8)c7)n6)c(C(F)F)n5)CC4)cc3C2=O)C(=O)N1 (stereo not drawn) [I-264] | C (<20% degradation) | C (<20% degradation) | C (<20% degradation)
O=C1CCC(N2C(=O)c3cccc(N4CCN(CCOCCOCCOCCNC(=O)c5ccc(-n6cc(NC(=O)c7coc(-c8ccnc(NCC9CC9)c8)n7)c(C(F)F)n6)cc5)CC4)c3C2=O)C(=O)N1 (stereo not drawn) [I-275] | C (<20% degradation) | B (>20-50% degradation) | A (>50% degradation)
